US10894808B2, “Polypeptide ligands specific for plasma kallikrein” (BicycleRD Limited, priority 2013, dated 2021)
Like-named read-outs stand apart in the source and are kept apart here. *1 amine or outer side, *2 acyl side, *3 side chain or, on linkers, in order; H or OH if unused. Where a SMILES comes first, the peptide text is derived from it. Bridges are numbered along the chain shown (N, C = ends). [ ]: non-standard residue; d: D form. TBMB = c1c(C[*:1])cc(C[*:3])cc1C[*:2]; Sar = CNCC(=O)O

How the values were obtained:
[1] = target: T1, human plasma kallikrein (Homo sapiens, UniProt P03952); assay: Functional enzyme assay, inhibition of human plasma kallikrein (Z-PheArg-AMC substrate); format: biochemical; settings: Table 1, synthetic peptides; read-out: Human (Ki)
T1 construct: purchased Stratech, UK
Description: (§1) Functional enzyme assays were conducted in 10 mM Tris HCl, 150 mM NaCl, 10 mM MgCl2, 1 mM CaCl2 and 1 mg/mL BSA (all Sigma UK) pH 7.4 at 25° C. in solid black 96 or 384 well plates. […] Release of AMC was measured using a Pherastar FS (BMG Labtech), excitation 360 nm, emission 460 nm. The rate of the linear phase of the reaction, typically 5 to 45 minutes, was calculated in MARS data analysis software (BMG labtech). The rate was then used to calculate the IC50 and Ki in Prism (GraphPad). A four parameter inhibition non-linear regression equation was used to calculate the IC50. […]
(§2) Peptides were dissolved as the TFA-salts in their powder form, and stock solutions were usually prepared in water. All solutions were centrifuged and filtered ([…] syringe filters) prior to absorption measurement at 280 nm. Extinction coefficients were calculated based on the Trp/Tyr content of the peptide, and that of TMB (the TMB core, when contained in a peptide, has an extinction coefficient of ˜300 M^−1 cm^−1).

[2] = target: T2, rat plasma kallikrein (Rattus norvegicus, UniProt P14272); assay: Functional enzyme assay, inhibition of rat plasma kallikrein (Z-PheArg-AMC substrate); format: biochemical; settings: Table 1, synthetic peptides; read-out: Rat (Ki)
T2 construct: polyhistidine tag followed by proTEV cleavage site (pro-peptide) (N, cleaved yes); made in house; host or cells: HEK-293 (suspension-adapted), pEXPR-IBA42 vector
Description: as §1, §2

[3] = target: rabbit kallikrein (Oryctolagus cuniculus, UniProt G1T127); assay: Functional enzyme assay, inhibition of rabbit kallikrein; format: biochemical
Description: as §1, §2

[4] = Plasma stability profiling Method #1 (35% plasma, MALDI-TOF window of detection); format: in vitro ADME; settings: Method #1, 35% rat or human plasma, 37° C., qualitative
Description: A rapid plasma stability profiling assay was developed that employed mass spectrometric detection (MALDI-TOF, Voyager DE, Applied Biosystems) of the parent mass, until the time when the parent peptide mass was no longer observable. Specifically, 200 μM of peptide was incubated in the presence of 35% rat or human plasma (Sera labs, using citrate as anticoagulant) at 37° C., which was supplemented with 1×PBS (derived from a 10×PBS Stock, Sigma). At various time points (i.e. t=0, 3, 24 hrs, henceafter daily up to 10 days), 2 μL of sample was added to 18 μL of 30 mM ammonium bicarbonate in a 1:1 mixture of acetonitrile:H2O. Samples were frozen at −80° C. until the time of analysis. For mass spectrometric analysis that determines the approximate detection window of the peptide, the acetonitrile:H2O-diluted sample of a given time point was spotted directly (0.7 μL) onto the MALDI plate. Matrix (alpha-cyanocinnamic acid, Sigma, prepared as a saturated solution in 1:1 acetonitrile:water containing 0.1% trifluoroacetic acid) was layered over the sample (1 μL). At a similar laser intensity setting on the MALDI TOF, the time could then be determined until parent peptide was no longer detectable. It should be noted that this is a qualitative assay serves to detect relative changes in plasma stability.

[5] = Aqueous solubility (qualitative); format: physicochemical; settings: in words
[6] = target: T3, biotinylated human plasma kallikrein (Homo sapiens, UniProt P03952); assay: Homogeneous plate-based screening assay of TBMB-cyclised phage clones (signal:background); format: binding; settings: Table 4, 06-259 affinity-matured library
T3 construct: The human kallikrein is non-recombinant and therefore the heavy chain is present; purchased Innovative Research, Novi, Mich., USA IHPKA; host or cells: from human plasma
Description: Assay of binding of individual clones: Library transformant colonies were picked at random and grown as individual cultures in 2TY broth containing selective antibiotic. The picked colonies were DNA-sequenced using a QIAgen PyroMark Q96 DNA sequencer to reveal the amino-acid substitution present in each clone. Where isolated, a clone of each unique substitution was assayed for human plasma kallikrein binding as follows. The phage-containing supernatant was harvested from the culture and phage were cyclised with tris bromomethyl benzene (TBMB) based on the methods of Heinis et al (Nature Chemical Biology vol. 5 pp 502-507 (2009)). The purified phage from this process were assayed for binding to biotinylated human plasma kallikrein using a homogeneous plate-based binding assay; assay read-out measured on a BMG Labtech Pherastar FS plate reader. The quantitative binding data from triplicate assay samples was averaged (mean) and expressed as signal:background (where background was a sample assayed with no target material). The signal:background was expressed as a % of the parallel parent sample. Error bars denote standard deviation of the mean. Assays shown are representative of at least 2 independent experiments. The assay data was correlated with the peptide sequences. Substitutions marked in grey were not tested (a clone was not isolated from the random library sampling). A sample of a non-binding (arbitrary) bicycle was assayed in parallel to illustrate the assay baseline.
Assay of binding of individual clones: Library transformant colonies, or selection output colonies, were picked and grown as individual cultures in 2TY broth containing selective antibiotic. The picked colonies were DNA-sequenced using a QIAgen PyroMark Q96 DNA sequencer to reveal the amino-acid substitution present in each clone, and were assayed for human plasma kallikrein binding as follows. The phage-containing supernatant was harvested from the culture and phage were cyclised with tris-bromomethylbenzene (TBMB) based on the methods of Heinis et al (Nature Chemical Biology vol. 5 pp 502-507 (2009)). The purified phage from this process were assayed for binding to biotinylated human plasma kallikrein using a homogeneous plate-based binding assay; assay read-out measured on a BMG Labtech Pherastar FS plate reader. The quantitative binding data from duplicate assay samples was averaged (mean) and expressed as signal:background. Assay data shown is representative of at least 2 independent experiments. The assay data was correlated with the peptide sequences.

[7] = Plasma stability profiling Method #2 (95% plasma, MALDI-TOF), rat plasma; format: in vitro ADME; settings: qualitative, sampled up to 46 hrs
Description: (§3) To obtain stability data more rapidly, peptides were also assessed in 95% plasma. Here, PBS was omitted, and a 1-5 mM peptide stock (in DMSO) was directly diluted into plasma (i.e. 2.5 μL stock into 47.5 μL plasma), giving a final concentration of 50 μM. 5 μL samples were taken at appropriate time points and frozen at −80° C. For analysis, the samples were defrosted, mixed with 25 μL of 3:3:1 acetonitrile:methanol:water, and centrifuged at 13 k for 5 min. 5 μL of the peptide-containing supernatant was aspirated and mixed with 30 mM ammonium bicarbonate in a 1:1 mixture of acetonitrile:H2O. 1 μL of this was then spotted on the MALDI plate and analysed as described above. As above, it should be noted that this is a qualitative assay serves to detect relative changes in plasma stability.

[8] = Plasma stability profiling Method #2 (95% plasma, MALDI-TOF), human plasma; format: in vitro ADME; settings: qualitative, sampled up to 46 hrs
Description: as §3

[9] = Intravenous pharmacokinetics in rat; format: in vivo
Description: Peptides used for the pharmacokinetic studies in Example 4 were lyophilised from 10 mM HCl in water 3 times to afford the hydrochloride salts of the compounds. Solutions were dosed by intravenous bolus at 1 mg/mL in 50 mM Hepes pH 7.0, 5% glycerol, 1.9% DMSO for two compounds (Ac-(06-550) Aze3 HArg5 Sar3-(D-Arg2)) and (06-259-02)-Sar3-(D-Arg2)) at 5 mg/kg in Spraguely Dawely rats. Serial blood samples (˜0.2 mL) were taken into EDTA tubes at the indicated time points, and plasma was separated by centrifugation, and frozen at −20 C for analysis. Employing standard bioanalytical techniques, plasma samples were then analysed and quantified for parent remaining compound using a Waters, Xevo TQS LC-MS. PK parameters were determined using the software package PK Solutions 2.0 from Summit Research Services.
Peptides Ac-(06-550)-Sar3-(D-Arg)2Aze3 HArg5 (which contains the stabilising and affinity enhancing modifications Aze3 and HArg5, and a solubilising C-terminal extension Sar3-(D-Arg)2) (SEQ ID NO: 98) and Ac-(06-259-02)-Sar3-(D-Arg)2 were selected for pharmacokinetic assessment in rat. Peptides were injected intravenously in buffered solution at 1 mg/mL at 5 mg/kg Sprague Dawley rats, and blood was sampled and analysed for peptide concentrations at a number of time points post injection.

[10] = test system: carrageenan-induced paw oedema; assay: Carrageenan-induced paw oedema in rat; format: in vivo; settings: peptides 15 mg/kg ip, indomethacin 5 mg/kg ip, paw volume at 1, 2, 4, 6 h, p<0.001
Description: In this analysis, peptide Ac-(06-259-02)-Sar3-(D-Arg)2 (referred to in this study as Bicycle 3; see Example 2 herein) was assessed comparatively against the peptide Ac-(06-34-18) Phe2 Aze3 Tyr4 HArg5 Ala(ψCH2NH)6 (referred to in this study as Bicycle 2 and which is disclosed in Table 26b and FIG. 22 of PCT/EP2014/057440). Inflammation was induced in male Sprague-Dawley rats (n=10 per group) by injection of 100 μL of 1% carrageenan solution in the subplantar region of the right hind paw. Animals received treatment with the peptides and indomethacin according to Table 10:
At 1, 2, 4 and 6 hours after carrageenan administration, paw volume was measured by water displacement method. Statistical analysis was conducted using 2-way ANOVA with repeated measures (GraphPad Prism).

rabbit kallikrein, sequence (G1T127 20-629): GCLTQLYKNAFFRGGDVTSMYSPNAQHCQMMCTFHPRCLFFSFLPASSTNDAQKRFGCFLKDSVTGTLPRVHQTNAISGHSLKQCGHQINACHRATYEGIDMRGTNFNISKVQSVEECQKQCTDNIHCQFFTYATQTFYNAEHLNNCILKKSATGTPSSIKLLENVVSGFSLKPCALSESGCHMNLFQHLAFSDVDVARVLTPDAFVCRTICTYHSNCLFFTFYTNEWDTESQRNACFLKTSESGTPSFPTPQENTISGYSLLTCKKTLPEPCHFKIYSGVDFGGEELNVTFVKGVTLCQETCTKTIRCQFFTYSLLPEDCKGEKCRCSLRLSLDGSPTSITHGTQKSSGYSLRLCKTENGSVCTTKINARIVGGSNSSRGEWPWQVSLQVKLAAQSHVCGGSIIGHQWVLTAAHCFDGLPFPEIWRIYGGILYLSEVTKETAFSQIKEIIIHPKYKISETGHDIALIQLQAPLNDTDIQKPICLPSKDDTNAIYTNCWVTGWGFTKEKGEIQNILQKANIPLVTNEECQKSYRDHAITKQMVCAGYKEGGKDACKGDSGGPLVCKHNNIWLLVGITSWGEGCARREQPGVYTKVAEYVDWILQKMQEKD
T2 sequence (P14272 391-638 limits assumed): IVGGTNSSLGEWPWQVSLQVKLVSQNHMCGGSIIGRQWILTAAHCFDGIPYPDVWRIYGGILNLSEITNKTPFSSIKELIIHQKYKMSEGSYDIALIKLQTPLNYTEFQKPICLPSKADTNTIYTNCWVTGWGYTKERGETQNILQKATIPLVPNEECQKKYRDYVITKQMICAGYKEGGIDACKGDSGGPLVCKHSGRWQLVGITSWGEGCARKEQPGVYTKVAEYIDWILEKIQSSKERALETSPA
T1 sequence (P03952 391-638 limits assumed): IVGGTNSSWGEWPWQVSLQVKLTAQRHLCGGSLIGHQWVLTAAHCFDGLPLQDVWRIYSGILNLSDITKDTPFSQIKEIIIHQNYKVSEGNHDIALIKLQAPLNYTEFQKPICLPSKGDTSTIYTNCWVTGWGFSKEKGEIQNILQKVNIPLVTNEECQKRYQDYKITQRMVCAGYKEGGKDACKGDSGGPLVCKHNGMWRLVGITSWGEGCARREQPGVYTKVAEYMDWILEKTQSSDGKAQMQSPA
T1 sequence (P03952 20-390 partner limits assumed): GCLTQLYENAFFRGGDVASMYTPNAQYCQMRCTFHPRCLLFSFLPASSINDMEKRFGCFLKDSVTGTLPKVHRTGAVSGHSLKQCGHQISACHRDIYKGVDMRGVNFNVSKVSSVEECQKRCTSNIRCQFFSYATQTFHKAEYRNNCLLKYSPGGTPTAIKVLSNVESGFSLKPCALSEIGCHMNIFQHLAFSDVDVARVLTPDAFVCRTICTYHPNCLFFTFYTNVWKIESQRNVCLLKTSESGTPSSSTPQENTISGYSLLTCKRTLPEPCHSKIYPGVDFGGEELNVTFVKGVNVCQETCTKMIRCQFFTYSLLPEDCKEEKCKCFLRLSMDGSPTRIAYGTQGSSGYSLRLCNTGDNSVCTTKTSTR
T3 sequence (P03952 391-638 limits assumed): as the sequence (P03952 391-638 limits assumed) above
T3 sequence (P03952 20-390 partner limits assumed): as the sequence (P03952 20-390 partner limits assumed) above

CC[C@H](C)[C@@H]1NC(=O)[C@H](CC(C)C)NC(=O)[C@H]([C@@H](C)O)NC(=O)[C@@H]2CSCc3cc(cc(c3)CSC[C@@H](C(=O)N[C@@H](C)C(N)=O)NC(=O)[C@H]([C@@H](C)O)NC(=O)[C@H]([C@@H](C)CC)NC(=O)[C@H](CC(N)=O)NC1=O)CSC[C@H](NC(=O)[C@H](C)N)C(=O)N[C@@H](CCCNC(=N)N)C(=O)N[C@@H](CC(N)=O)C(=O)N[C@@H](Cc1ccc(O)cc1)C(=O)N[C@@H](Cc1c[nH]c3ccccc13)C(=O)N[C@@H](CC(N)=O)C(=O)N1CCC[C@H]1C(=O)N2 [06-255] (H-ACRNYWNPCTLINITCA-NH2; linker 2-9-16 via TBMB; N-terminus and C-terminus assumed)
Ki [1]: 0.0034 µM
Ki [2]: 0.0189 µM
Ki ([3]; Table 1, synthetic peptides, read-out: Rabbit (Ki)): 0.342 µM
Ki ([3]; Table 5, read-out: Rabbit (Ki)): 0.342 µM
window of detection of parent peptide [4]: up to 10 days
aqueous solubility [5]: poor solubility profile

CC(C)C[C@@H]1NC(=O)[C@@H]2CCCN2C(=O)[C@H](C)NC(=O)[C@H](CC(=O)O)NC(=O)[C@H](Cc2c[nH]c3ccccc23)NC(=O)[C@@H]2CCCN2C(=O)[C@@H]2CSCc3cc(cc(c3)CSC[C@@H](C(=O)N[C@@H](C)C(N)=O)NC1=O)CSC[C@H](NC(=O)[C@H](C)N)C(=O)N[C@@H](CC(N)=O)C(=O)N[C@@H]([C@@H](C)O)C(=O)N[C@@H](Cc1c[nH]c3ccccc13)C(=O)N[C@@H](CC(N)=O)C(=O)N1CCC[C@H]1C(=O)N[C@@H](Cc1c[nH]c3ccccc13)C(=O)N2 [06-259-02] (H-ACNTWNPWCPWDAPLCA-NH2; linker 2-9-16 via TBMB; N-terminus and C-terminus assumed)
Ki ([3]; Table 5, read-out: Rabbit (Ki)): 1.45 µM
S:B (Signal:Background) [6]: 43.49
window of detection of parent peptide [4]: up to 10 days
comparative stability in rat plasma [7]: significantly more stable
comparative stability in human plasma [8]: significantly more stable
clearance ([9]; Sprague-Dawley, plasma, text b258, rat, iv 5 mg/kg): 0.42 L/h/kg
aqueous solubility [5]: poor solubility profile

CC[C@H](C)[C@@H]1NC(=O)[C@H](CC(=O)O)NC(=O)[C@@H]2CCCN2C(=O)[C@H](Cc2ccc(O)cc2)NC(=O)[C@H](Cc2ccc(O)cc2)NC(=O)[C@H](C(C)C)NC(=O)[C@@H]2CSCc3cc(cc(c3)CSC[C@H](N)C(=O)N[C@@H](CO)C(=O)N[C@@H](Cc3ccccc3)C(=O)N3CCC[C@H]3C(=O)N[C@@H](Cc3ccc(O)cc3)C(=O)N[C@@H](CCCNC(=N)N)C(=O)N2)CSC[C@@H](C(N)=O)NC1=O [06-550] (H-CSFPYRCVYYPDIC-NH2; linker 1-7-14 via TBMB; N-terminus assumed)
clearance ([9]; in vivo, text b258, rat, iv 5 mg/kg): 1.02 L/h/kg
aqueous solubility [5]: significantly reduced aqueous solubility

CC(=O)N[C@H]1CSCc2cc3cc(c2)CSC[C@H](NC(=O)[C@H](Cc2c[nH]c4ccccc24)NC(=O)[C@@H]2CCCN2C(=O)[C@H](CC(N)=O)NC(=O)[C@H](Cc2c[nH]c4ccccc24)NC(=O)[C@H]([C@@H](C)O)NC(=O)[C@H](CC(N)=O)NC1=O)C(=O)N1CCC[C@H]1C(=O)N[C@@H](Cc1c[nH]c2ccccc12)C(=O)N[C@@H](CC(=O)O)C(=O)N[C@@H](C)C(=O)N1CCC[C@H]1C(=O)N[C@@H](CC(C)C)C(=O)N[C@H](C(=O)N[C@@H](C)C(=O)N(C)CC(=O)N(C)CC(=O)N(C)CC(=O)N[C@H](CCCNC(=N)N)C(=O)N[C@H](CCCNC(=N)N)C(N)=O)CSC3 [Ac-(06-259-02)-Sar3-(DArg2)] (Ac-CNTWNPWCPWDAPLCA[Sar][Sar][Sar][dR][dR]-NH2; linker 1-8-15 via TBMB)
Ki [3]: 1.45 µM
stability in the rat circulation ([9]; FIG. 4, rat, iv, in words): marked stability in the rat circulation
clearance ([9]; in vivo, Table 8, Sprague Dawley rat, iv 5 mg/kg): 0.432 L/h/kg
Vd ([9]; in vivo, Table 8, Sprague Dawley rat, iv 5 mg/kg, read-out: Vss): 0.8 L/kg
half-life ([9]; in vivo, Table 8, Sprague Dawley rat, iv 5 mg/kg, read-out: t1/2 elimination): 1.3 h
effect on paw swelling induced by carrageenan [10]: inhibited the paw swelling induced by carrageenan at all timepoints

COc1ccc2c(c1)c(CC(=O)O)c(C)n2C(=O)c1ccc(Cl)cc1 [indomethacin, reference compound]
effect on paw swelling induced by carrageenan [10]: highly significant reduction in paw swelling
